From patent US9469665B2, “Compound having lysophosphatidylserine receptor function modulation activity” (THE UNIVERSITY OF TOKYO, priority 2013, dated 2016)

Experiments:
Type in all cases: cell-based
mouse GPR34 = target: T1, mouse GPR34 (Mus musculus, UniProt Q9R1K6); assay: TGFα shedding assay, agonistic activity on GPR34; design: key to GPR34/LPS2 agonistic activity, TGFα shedding assay: an activity that is 100 folds that of control compound 1 as +++++; an activity that is 10 folds that of control compound 1 as ++++; the activity of the control compound 1 (LPS18:1) as +++; an activity that is 1/10 as ++; an activity that is 1/100 as +; an activity below that as −; details: HEK293 cells transfected with mouse GPR34 and AP labeled TGFα; activity relative to control compound 1 (LPS18:1) = +++
T1 construct: expressed in transfected cells; host or cells: HEK293
Description: (§1) [Test Example 1]Assay of Agonistic Activity by TGFα Shedding Assay
(§2) HEK293 cells were suspended in the Dulbecco's modified Eagle's medium (DMEM) containing 10% fetal bovine serum (FCS) to exist in an amount of 2.0×10^5 cells/mL, and they were seeded in 60 mm dishes at 4 mL per dish. Transfection of different expression vectors was performed using LipofectAMINE 2000 (Invitrogen) after 24 hours of culture under the presence of 5% CO2. For each 60 mm dish, 1 μg of AP labeled TGFα plasmid vectors were used, and 1 μg of pCAGGS plasmid vectors of mouse GPR34, P2Y10 or GPR174 were used. The plasmid vectors were prepared by methods disclosed in Patent Documents 2 and 5. Note that the AP labeled TGFα is a protein comprising a membrane-bound pro-TGFα whose N terminal end is fused with human placental alkaline phosphatase, and the plasmid vector of the AP labeled TGFα may be produced based on the teaching of Tokumaru et al., J Cell Biol 151, 209-220 (2000). After 24 hours of transfection, the cells were peeled off using trypsin/EDTA, and they were re-suspended in a culture medium to form an amount of 2.0×10^4 cells/well to be seeded to a 96-well plate. Hanks' Balanced Salt Solution (HBSS, containing 5 mM HEPES) was used for the re-suspended solution when stimulating with the compound. After it was left still for 30 min., subject compounds of various concentrations were added and the solutions were left still for another 1 hour under the presence of 5% CO2. The 96-well plate was subjected to centrifugation (190×g, 3 min.), then 80 μl of supernatant was transferred to a different 96-well plate. A reaction buffer (40 mM Tris-HCl (pH 9.5)) containing 10 mM p-nitrophenyl phosphate (p-NPP) was added in an amount of 80 μL to the supernatant and cells. The OD405 was measured with a micro plate reader (background), then after heating at 37° C. for an hour, OD405 was re-measured. The AP activity for each well was obtained by subtracting the background from the second absorbance and plugging the difference into the following formula.
(§3) In addition, the value obtained by subtracting the AP activity (%) of the non-stimulated group was used in the vertical axis to create a graph. The graphs of the test results for Example 3 (lysoPS sn-1-deoxy sn3 C3-ph-o-OBn-m-Oph) and Example 31 (lysoPS sn-1-OMe sn3 C3-ph-o-OBn-m-Oph) are shown in FIG. 1.
(§4) The obtained activity is shown by plotting the compound concentration and AP activity (%), then representing the activity of the control compound 1 (LPS18:1) as +++, an activity that is 10 folds that of control compound 1 as ++++, an activity that is 100 folds that of control compound 1 as +++++, an activity that is 1/10 as ++, and an activity that is 1/100 as +, and an activity below that as −.

mouse GPR174 = target: T2, mouse GPR174 (Mus musculus, UniProt Q3U507); assay: TGFα shedding assay, agonistic activity on GPR174; design: key: an activity that is 100 folds that of control compound 1 as +++++; an activity that is 10 folds that of control compound 1 as ++++; the activity of the control compound 1 (LPS18:1) as +++; an activity that is 1/10 as ++; an activity that is 1/100 as +; an activity below that as −; details: HEK293 cells transfected with mouse GPR174 and AP labeled TGFα; activity relative to control compound 1 (LPS18:1) = +++
T2 construct: expressed in transfected cells; host or cells: HEK293
Description: as §1, §2, §3, §4

mouse P2Y10 = target: T3, mouse P2Y10 (Mus musculus, UniProt Q8BFU7); assay: TGFα shedding assay, agonistic activity on P2Y10; design: key: an activity that is 100 folds that of control compound 1 as +++++; an activity that is 10 folds that of control compound 1 as ++++; the activity of the control compound 1 (LPS18:1) as +++; an activity that is 1/10 as ++; an activity that is 1/100 as +; an activity below that as −; details: HEK293 cells transfected with mouse P2Y10 and AP labeled TGFα; activity relative to control compound 1 (LPS18:1) = +++
T3 construct: expressed in transfected cells; host or cells: HEK293
Description: as §1, §2, §3, §4

T3 sequence (Q8BFU7 whole entry): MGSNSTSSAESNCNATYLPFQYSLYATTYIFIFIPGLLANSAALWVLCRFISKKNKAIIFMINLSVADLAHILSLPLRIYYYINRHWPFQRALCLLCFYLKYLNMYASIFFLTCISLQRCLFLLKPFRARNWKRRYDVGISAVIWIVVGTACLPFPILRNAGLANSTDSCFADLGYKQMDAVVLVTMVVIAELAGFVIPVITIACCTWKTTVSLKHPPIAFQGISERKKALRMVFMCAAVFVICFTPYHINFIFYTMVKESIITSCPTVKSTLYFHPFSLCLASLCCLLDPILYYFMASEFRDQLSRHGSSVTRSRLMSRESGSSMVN
T2 sequence (Q3U507 whole entry): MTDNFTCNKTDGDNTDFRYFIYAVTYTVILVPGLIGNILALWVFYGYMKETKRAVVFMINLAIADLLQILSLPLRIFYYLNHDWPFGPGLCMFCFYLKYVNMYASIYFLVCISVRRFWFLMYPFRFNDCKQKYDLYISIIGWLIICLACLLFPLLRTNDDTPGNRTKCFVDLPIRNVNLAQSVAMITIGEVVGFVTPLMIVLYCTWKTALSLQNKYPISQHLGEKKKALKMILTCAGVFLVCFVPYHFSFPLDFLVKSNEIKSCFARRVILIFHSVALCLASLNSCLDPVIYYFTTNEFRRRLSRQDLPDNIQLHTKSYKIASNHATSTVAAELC
T1 sequence (Q9R1K6 whole entry): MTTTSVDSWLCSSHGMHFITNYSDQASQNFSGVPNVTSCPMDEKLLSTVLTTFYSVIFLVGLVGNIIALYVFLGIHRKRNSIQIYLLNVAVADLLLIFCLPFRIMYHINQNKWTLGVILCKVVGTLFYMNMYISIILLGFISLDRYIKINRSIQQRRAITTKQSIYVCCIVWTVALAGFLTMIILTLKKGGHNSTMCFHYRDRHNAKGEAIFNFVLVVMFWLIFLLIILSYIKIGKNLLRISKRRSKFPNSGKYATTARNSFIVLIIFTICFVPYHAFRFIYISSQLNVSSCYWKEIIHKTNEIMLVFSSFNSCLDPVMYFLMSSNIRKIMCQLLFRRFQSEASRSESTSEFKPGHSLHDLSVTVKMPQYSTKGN

| GPR34/LPS2 agonistic activity, TGFα shedding assay (mouse GPR34) | GPR174/LPS3 agonistic activity, TGFα shedding assay (mouse GPR174) | P2Y10/LPS2 agonistic activity, TGFα shedding assay (mouse P2Y10) | Compound |
| --- | --- | --- | --- |
| −~++ | − | ++ | CCCCCCCCCCCOc1ccccc1CCC(=O)OC[C@H]1OCCC[C@@H]1OP(=O)(O)OC[C@H](N)C(=O)O [Example 21, (2S)-2-amino-3-(hydroxyl-{(2R,3S)-2-[3-(2-undecyloxy-phenyl)-propionyloxymethyl]-tetrahydro-pyran-3-yloxy}-phosphoryloxy)-propionic acid] |
| − | − | ++ | CCCCCCCCCCCOc1ccccc1CCC(=O)OC[C@H]1OCC=C[C@@H]1OP(=O)(O)OC[C@H](N)C(=O)O [Example 19, (2S)-2-amino-3-(hydroxyl-{(2R,3S)-2-[3-(2-undecyloxy-phenyl)-propionyloxymethyl]-3,6-dihydro-2H-pyran-3-yloxy}-phosphoryloxy)-propionic acid] |
| − | − | + | CCCCCCCCCCCOc1ccc(C(C)(C)C)cc1CCC(=O)O[C@H]1COCC[C@@H]1OP(=O)(O)OC[C@H](N)C(=O)O [Example 12, (2S)-2-amino-3-({(3S,4S)-3-[3-(5-tert-butyl-2-undecyloxy-phenyl)-propionyloxy]-tetrahydro-pyran-4-yloxy}-hydroxy-phosphoryloxy)-propionic acid] |
| ++++~+++++ | − | ++~+++ | CCCCCCCCCCCOc1ccccc1CCC(=O)O[C@@H]1COCC[C@H]1OP(=O)(O)OC[C@H](N)C(=O)O [Example 9, (2S)-2-amino-3-(hydroxyl-{(3R,4R)-3-[3-(2-undecyloxy-phenyl)-propionyloxy]-tetrahydropyran-4-yloxy}-phosphoryloxy)-propionic acid] |
| − | − | ++~+++ | CCCCCCCCCCCOc1ccccc1CCC(=O)O[C@H]1CCOC[C@@H]1OP(=O)(O)OC[C@H](N)C(=O)O [Example 10, (2S)-2-amino-3-(hydroxy-{(3S,4S)-4-[3-(2-undecyloxy-phenyl)-propionyloxy]-tetrahydro-pyran-3-yloxy}-phosphoryloxy)-propionic acid] |

Further lines, the molecule ahead of its results:

| Compound | GPR34/LPS2 agonistic activity, TGFα shedding assay (mouse GPR34) | GPR174/LPS3 agonistic activity, TGFα shedding assay (mouse GPR174) | P2Y10/LPS2 agonistic activity, TGFα shedding assay (mouse P2Y10) |
| --- | --- | --- | --- |
| CCCCCCCC/C=C\CCCCCCCC(=O)OC[C@H]1OCC=C[C@@H]1OP(=O)(O)OC[C@H](N)C(=O)O [Example 23, (9Z)-Octadeca-9-enoic acid (2R,3S)-3-[((2S)-2-amino-2-carboxy-ethoxy)-hydroxy-phosphoryloxy]-3,6-dihydro-2H-pyran-2-ylmethyl ester] | ++ | − | ++ |
| N[C@@H](COP(=O)(O)OC[C@H]1OCCC[C@@H]1OC(=O)CCc1ccccc1OCc1cccc(Oc2ccccc2)c1)C(=O)O [Example 13, (2S)-2-amino-3-[hydroxyl-((2R,3S)-3-{3-[2-(3-phenoxy-benzyloxy)-phenyl]-propionyloxy}-tetrahydro-pyran-2-ylmethoxy)-phosphoryloxy]-propionic acid] | ++ | − | −~+ |
| CCCCCCCC/C=C\CCCCCCCC(=O)OC[C@@H](C)OP(=O)(O)OC[C@H](N)C(=O)O [Example 1, (9Z)-Octadeca-9-enoic acid (2R)-2-[((2S)-2-amino-2-carboxy-ethoxy)-hydroxy-phosphoryloxy]-propyl ester] | ++++ | +~++ | ++ |
